Laboratory results: patent US20050250784A1 (Miikana Therapeutics Corporation, priority 2004, published 2005)

The compounds below were run on HDAC (HeLa cell nuclear extract, a mosaic of HDAC enzymes) (assay: In vitro fluorescent histone deacetylase assay (Biomol HDAC fluorescent activity kit)). Conditions: compound concentration 100 μM; HeLa cell nuclear extract as HDAC source; substrate 50 μM, 10 min, room temperature.
Format: biochemical
Method: Histone deacetylase (HDAC) activity assays were performed using the HDAC fluorescent activity assay/drug discovery kit (Biomol Research Laboratories, Plymouth Meeting, Pa.) essentially according to the manufacturer's instructions. The included HeLa cell nuclear extract, which contains a mosaic of HDAC enzymes and other nuclear factors, was used as the source of HDAC activity. The final substrate concentration in the assay mixture was 50 μM. The reaction was allowed to proceed for 10 min at room temperature before stopping the reaction. Test compounds were prepared as 20 mM stock solutions in DMSO (Molecular Biology grade, Sigma-Aldrich Co., St. Louis, Mo.) and stored at −70° C. Serial dilutions of test compounds were prepared in assay buffer immediately prior to testing. DMSO was determined in a separate trial to have no significant effect on the activity of this assay at concentrations up to 5%; the final DMSO concentration in the wells was no more than 2% and therefore DMSO effects were safely neglected. Assays were performed in white polystyrene 96-well half-area assay plates (Corning, Corning, N.Y.) and measured on a Wallace 1420 fluorescent plate reader (Wallac Oy, Turku, Finland) with an excitation wavelength of 355 nm, an emission wavelength of 460 nm, and a 1 sec signal averaging time.

SMILES	% inhibition HDAC @ 100 μM [%]
Cc1cccc(Cl)c1S(=O)(=O)N1CCN(c2ncc(C(=O)NO)s2)CC1 [Example 238, 2-[4-(2-methyl-6-chlorophenylsulfonyl)-piperazin-1-yl]-thiazole-5-carboxylic acid hydroxyamide]	100
O=C(NO)c1cnc(N2CCN(S(=O)(=O)c3cc4ccccc4s3)CC2)s1 [Example 243, 2-[4-(2-benzothiphenesulfonyl)-piperazin-1-yl]-thiazole-5-carboxylic acid hydroxyamide]	99
CSc1nccc(-c2ccc(S(=O)(=O)N3CCN(c4ncc(C(=O)NO)s4)CC3)s2)n1 [Example 245, 2-[4-(2-{2-methylthiopyrimidine-4-yl}-5-thiophenesulfonyl)-piperazin-1-yl]-thiazole-5-carboxylic acid hydroxyamide]	95
O=C(NO)c1cnc(N2CCN(S(=O)(=O)c3ccc4nsnc4c3)CC2)s1 [Example 246, 2-[4-(2,1,3-benzothiadiazole-5-sulfonyl)-piperazin-1-yl]-thiazole-5-carboxylic acid hydroxyamide]	98
O=C(NO)c1cnc(N2CCN(S(=O)(=O)c3ccc(Oc4ccccc4)nc3)CC2)s1 [Example 247, 2-[4-(2-phenoxypyridine-5-sulfonyl)-piperazin-1-yl]-thiazole-5-carboxylic acid hydroxyamide]	96
O=C(NO)c1cnc(N2CCN(S(=O)(=O)c3cccc(-c4ccccc4)c3)CC2)s1 [Example 251, 2-[4-(3-biphenylsulfonyl)piperazin-1-yl]-thiazole-5-carboxylic acid hydroxyamide]	100
CCCCS(=O)(=O)N1CCN(c2ncc(C(=O)NO)s2)CC1 [Example 253, 2-[4-(n-butylsulfonyl)-piperazin-1-yl]-thiazole-5-carboxylic acid hydroxyamide]	94
O=C(NO)c1cnc(N2CCN(S(=O)(=O)c3ccc(Br)s3)CC2)s1 [Example 255, 2-{4-[(5-bromothien-2-yl)sulfonyl]piperazin-1-yl}-N-hydroxy-1,3-thiazole-5-carboxamide]	29
O=C(NO)c1cnc(N2CCN(S(=O)(=O)c3ccc(-c4ccc5c(c4)OCO5)cc3)CC2)s1 [Example 260, 2-(4-{[4-(1,3-benzodioxol-5-yl)phenyl]sulfonyl}piperazin-1-yl)-1,3-thiazole-5-carboxylic acid hydroxyamide]	99
O=C(NO)c1cnc(N2CCN(S(=O)(=O)c3ccc(-c4cccc(F)c4)cc3)CC2)s1 [Example 261]	95
O=C(NO)c1cnc(N2CCN(S(=O)(=O)c3ccc(-c4cccc(CN5CCCCC5)c4)cc3)CC2)s1 [Example 273]	100
O=C(NO)c1cnc(N2CCN(S(=O)(=O)c3ccc(-c4ccsc4CN4CCCC4)cc3)CC2)s1 [Example 282, 2-(4-[4-{(2-(pyrrolidin-1-ylmethyl)-thien-3-yl)phenylsulfonyl}]piperazin-1-yl)-1,3-thiazole-5-carboxylic acid hydroxyamide]	99
CN1CCN(Cc2cccc(-c3ccc(S(=O)(=O)N4CCN(c5ncc(C(=O)NO)s5)CC4)cc3)c2)CC1 [Example 284]	100
CCN(C)Cc1cccc(-c2ccc(S(=O)(=O)N3CCN(c4ncc(C(=O)NO)s4)CC3)cc2)c1 [Example 286, 2-{4-[(3′-[ethyl(methyl)amino]methyl]-1,1′-biphenylsulfonyl]piperazin-1-yl}-1,3-thiazole-5-carboxylic acid hydroxyamide]	99
CC(C)N(C)Cc1cccc(-c2ccc(S(=O)(=O)N3CCN(c4ncc(C(=O)NO)s4)CC3)cc2)c1 [Example 287, 2-{4-[(3′-[isopropyl(methyl)amino]methyl]-1,1′-biphenylsulfonyl]-piperazin-1-yl}-1,3-thiazole-5-carboxylic acid hydroxyamide]	99
O=C(NO)c1cnc(N2CCN(S(=O)(=O)c3ccc(-c4ccc(CN5CCCC5)s4)cc3)CC2)s1 [Example 288]	99
O=C(NO)c1cnc(N2CCN(S(=O)(=O)c3ccc(-c4sccc4CN4CCCC4)cc3)CC2)s1 [Example 289]	99
O=C(NO)c1cnc(N2CCN(S(=O)(=O)c3ccc(-c4cncnc4)cc3)CC2)s1 [Example 291, 2-[4-{(4-pyrimidine)benzenesulfonyl}-piperazin-1-yl]-thiazole-5-carboxylic acid hydroxyamide]	99
CC(=O)Nc1ccc(-c2ccc(S(=O)(=O)N3CCN(c4ncc(C(=O)NO)s4)CC3)cc2)cc1 [Example 292]	100
O=C(NO)c1cnc(N2CCN(S(=O)(=O)c3ccc(-c4cccnc4)cc3)CC2)s1 [Example 293, 2-[4-{(3-pyrido)benzenesulfonyl}-piperazin-1-yl]-thiazole-5-carboxylic acid hydroxyamide]	100
O=C(NO)c1cnc(N2CCN(S(=O)(=O)CCc3ccccc3)CC2)s1 [Example 294, 2-[4-(phenethylsulfonyl)piperazin-1-yl]-thiazole-5-carboxylic acid hydroxyamide]	98
CN(C)Cc1ccc(S(=O)(=O)N2CCN(c3ncc(C(=O)NO)s3)CC2)cc1 [Example 295]	98
CN(C)Cc1cccc(S(=O)(=O)N2CCN(c3ncc(C(=O)NO)s3)CC2)c1 [Example 297]	99
O=C(NO)c1cnc(N2CCN(S(=O)(=O)c3cccc(CN4CCCC4)c3)CC2)s1 [Example 298]	98
O=C(NO)c1cnc(N2CCN(S(=O)(=O)c3ccc(CN4CCCC4)cc3)CC2)s1 [Example 305]	99
O=C(NO)c1cnc(N2CCN(S(=O)(=O)c3ccc(CN4CCOCC4)cc3)CC2)s1 [Example 306]	99
